Here are results for 1 compound from paper PMC11492916 (OncoTargets and Therapy, 2024).

Molecules are shown by their SMILES. Several values for one entry are separate records, joined by “and”; a condition that tells them apart may be missing. Equal entries are not always repeated.

Assay [1] has as its system T47D. As to the kind of experiment: MTT cytotoxicity assay, T47D breast cancer cells. The class given is cell-based. Conditions: Homo sapiens, 48 h, read-out: IC50, cytotoxic activity against T47D. In general terms: Formazan colour is commonly taken as a measure of viable cells.
Assay [2] concerns HeLa. As to the kind of experiment: MTT cytotoxicity assay, HeLa cervical cancer cells. It is filed as cell-based. Particulars: Homo sapiens, 48 h, read-out: IC50, cytotoxic activity against HeLa.

For the compound `COc1cccc2c1C(=O)c1c(O)c3c(c(O)c1C2=O)C[C@@](O)(C(=O)CO)C[C@@H]3O[C@H]1C[C@H](N)[C@H](O)[C@H](C)O1` [DOX, doxorubicin], the IC50 in assay [1] was 0.17 µg/mL and 310 nM; in assay [2], 3.38 µg/mL and 6.22 µM.

A word on the IC50: it is the concentration at which inhibition is half-maximal.
